Measurements taken from ChEMBL document CHEMBL1126103, “3'-C-branched 2'-deoxy-5-methyluridines: synthesis, enzyme inhibition, and antiviral properties” (J Med Chem, 1992).
pEC50: −log10 of the molar value.

How the values were obtained:
MT4 [1] = test: Effective concentration required to inhibit HIV-1-induced cytopathicity in MT-4 cells; assay type: functional, cell-based; details: Homo sapiens
MT4 [2] = test: Cytotoxic concentration required to reduce MT-4 cells viability by 50%; assay type: functional; details: Homo sapiens

| SMILES | pEC50 (MT4 [1]) | CC50 (MT4 [2]) [µM] |
| --- | --- | --- |
| Cc1cn([C@H]2C[C@@](C)(O)[C@@H](CO)O2)c(=O)[nH]c1=O | < 3.30 | > 500 |
| Cc1cn([C@H]2C[C@](C)(O)[C@@H](COP(=O)(O)O)O2)c(=O)[nH]c1=O | 4.14 | > 500 |
| Cc1cn([C@H]2C[C@@](C)(O)[C@@H](COP(=O)(O)O)O2)c(=O)[nH]c1=O | 3.61 | > 500 |
| Cc1cn([C@H]2C[C@](C)(O)[C@@H](CO)O2)c(=O)[nH]c1=O | < 3.30 | > 500 |
